For the assay, the target named is T1, 5-HT1A recognition sites (Rattus norvegicus, UniProt P19327).
T1 construct: Tissues from 4-8 rats are pooled and homogenized in 70 vol Tris-HCl buffer; from tissue; host or cells: Sprague-Dawley rat frontal cortex membrane homogenate
T1 sequence (P19327 1-422): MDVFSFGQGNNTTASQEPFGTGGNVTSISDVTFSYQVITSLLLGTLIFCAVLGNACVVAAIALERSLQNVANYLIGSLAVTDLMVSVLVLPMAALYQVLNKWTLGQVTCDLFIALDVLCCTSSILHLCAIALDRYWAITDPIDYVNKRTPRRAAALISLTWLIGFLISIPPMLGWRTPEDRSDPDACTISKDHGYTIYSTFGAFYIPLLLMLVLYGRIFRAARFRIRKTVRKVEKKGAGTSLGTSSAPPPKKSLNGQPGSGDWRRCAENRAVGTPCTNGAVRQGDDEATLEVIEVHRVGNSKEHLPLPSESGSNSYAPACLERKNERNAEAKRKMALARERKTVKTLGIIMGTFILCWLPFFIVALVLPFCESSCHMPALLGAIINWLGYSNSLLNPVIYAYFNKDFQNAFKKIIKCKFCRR
The assay can be described thus: In vitro 5-HT1A radioligand binding ([³H]-8-OH-DPAT). More on the design: species or system Sprague-Dawley rat. The settings on record: rat frontal cortex homogenate; radioligand [³H]-8-OH-DPAT; 37°C for 15 min; results expressed as pIC₅₀; read-out: 5-HT1A Binding Affinity Rat Brain cortex (converted). Here is the method: Radioligand binding studies of the 5-HT1A recognition sites are conducted in the following manner.
Radioactivity is measured following extraction into Aquasol-Z (NEN) at an efficiency of 45-50%.

Consider `CC1(C)CC(=O)OC(=NCCCCN2CCN(c3ncccn3)CC2)N1` [Compound B, 2-[4-[4-(2-pyrimidinyl)-1-piperazinyl]butylimino]-tetrahydro-4,4-dimethyl-6H-1,3-oxazine-6-one], for which the IC50 was 479 nM.

The values are drawn from EP0238905B1, “4-(2-pyrimidinyl)-1-piperazinyl heterocyclic carbonyl derivatives” (MERRELL DOW PHARMACEUTICALS INC., priority 1986, dated 1987).
